# pEC50, pIC50: −log10 of the molar value. Entries after “also recorded” stand apart in the source; their conditions may differ. Where two headings read alike, the source gives them in different places.
# Key:
# [1] = molecular target: T1, human immunoproteasome β5i (Homo sapiens, UniProt P28062); experiment: IC50 against chymotryptic β5i activity of human immunoproteasome (96-well plate, Ac-ANW-AMC); assay type: biochemical
# T1 construct: purchased Boston Biochem Inc
# Description: A 96-well-plate assays were used to determine the IC50s against the chymotryptic β5 activities of the proteasomes. Both human constitutive proteasome and immunoproteasome were purchased from Boston Biochem Inc. 1 μL of 100× compound in DMSO at designated concentrations were spotted at the bottom of the wells. DMSO was used as a control. […] The hydrolysis of the substrate over time in each well was monitored at excitation 360 nm, emission 460 nm for 90 minutes. IC50s were estimated by fitting the velocities of hydrolysis against compound concentrations using PRISM. […] SDS (0.02%) was used as activator, and 0.01% BSA was used in the reaction buffer.
# [2] = molecular target: T2, human constitutive proteasome β5c (Homo sapiens, UniProt P28074); experiment: IC50 against chymotryptic β5c activity of human constitutive proteasome (96-well plate, Suc-LLVY-AMC); assay type: biochemical
# T2 construct: purchased Boston Biochem Inc
# Description: A 96-well-plate assays were used to determine the IC50s against the chymotryptic β5 activities of the proteasomes. Both human constitutive proteasome and immunoproteasome were purchased from Boston Biochem Inc. 1 μL of 100× compound in DMSO at designated concentrations were spotted at the bottom of the wells. DMSO was used as a control. Final concentrations of the inhibitors were from 100 μM to 0.098 μM. The hydrolysis of the substrate over time in each well was monitored at excitation 360 nm, emission 460 nm for 90 minutes. IC50s were estimated by fitting the velocities of hydrolysis against compound concentrations using PRISM. […] Suc-LLVY-AMC was used for βc at final concentration of 25 μM, and Ac-ANW-AMC for b5i at final concentration of 15 μM. SDS (0.02%) was used as activator, and 0.01% BSA was used in the reaction buffer.
# The foregoing features of these AsnEDA encouraged a further round of SAR studies (Table 5) based on varying the carboxylic acid at the ethylenediamine, the N-cap at the Asn, and the side chain of the Asn, based on PKS21004. All compounds listed in the Table 5 were synthesized as described in Examples 6-77. All final compounds were confirmed by NMR and HRMS. IC50s of all compounds against β5i and β5c (Table 5), β1i, β2i, β1c and β2c were determined following a reported method (Lin et al., “N,C-Capped Dipeptides With Selectivity for Mycobacterial Proteasome Over Human Proteasomes: Role of S3 and S1Binding Pockets,” J Am Chem Soc. 135:9968-9971 (2013), which is hereby incorporated by reference in its entirety). […] The [1,1′-biphenyl]-3-carboxamide of PKS21004 was then modified with the following substituents: 4′-fluoro (PKS21026), 4′-cyano (PKS21028), 4-fluoro (PKS21196), 4,3′-difluoro (PKS21195) and 4,2′-difluoro (PKS21187).
# Plasmodium falciparum = experiment: Growth of Plasmodium falciparum in red blood cells (SYBR Green, 72 hours); assay type: cell-based; conditions: for EC50: P.f. 3D7, growth in red blood cells, read-out: EC50 (nM) (P.f.)
# Description: Continuous in vitro cultures of Plasmodium falciparum: were maintained in human red blood cells (RBC) diluted to a hematocrit of 5% in RPMI 1640 medium with HEPES and Hypoxanthine and completed with 0.5% Albumax II (Invitrogen), 0.25% sodium bicarbonate, and 0.1 mg/ml gentamicin. Parasites were incubated at 37° C. in a gas mixture of 5% oxygen, 5% carbon dioxide, and 90% nitrogen.
# Parasite sensitivity to novel compounds were determined using a SYBR Green (Invitrogen S1046) drug assay protocol. P. falciparum of various clinic stains were cultured with compounds at concentrations in a series of dilution in a clear, sterile 96-well plate for 72 hours. Subsequently, 150 μl of the cultures were transferred to a black 96-well plate and placed in the freezer for red blood cell lysis. The plates were thawed and suspended in a Sybr Green Lysis buffer. GraphPad Prism was used to analyze the raw data collected […]. Drug concentrations were converted to logarithms, normalized, and then curve fitted by non-linear regression to obtain EC50 values.
# Plasmodium falciparum: parasites were cultured in human red cells. Drug assays were run in 96 well plates at a total volume of 200 μl. Assays were set up at a starting parasitemia (percent of infected red cells) of 0.5%. Test compounds were plated at concentrations of 2778 nM to 0.4 nM. The test plates were grown under standard low oxygen conditions at 37° C. for 72 hours. At that time the plates were prepared for growth determination, first the plates were frozen and thawed to lyse the red blood cells, 150 μl of the lysed thawed culture was transferred to a black 96 well plate, and mixed in a lysis buffer with SYBR green DNA dye. The fluorescence of each well was recorded in a plate reader with excitation wavelength 490 nm and emission wavelength 530 nm and normalized relative to DMSO control. The EC50s were determined using Prism software.
# Pf20S β5 = experiment: Labeling of Pf20S active subunits by activity probe MV151 in Pf lysates; assay type: biochemical, P. falciparum; conditions: 1 hour with inhibitor, then MV151 (2 μM) 1 hour
# Description: Pf lysates were incubated with inhibitors at indicated concentrations for 1 hour prior to incubation with MV151 (2 μM) for an additional hour. SDS pages were scanned on a Typhoon fluorescent scanner. […] BTZ was used as a positive control.
# hu i-20S β5i = molecular target: T3, hu i-20S β5i (Homo sapiens, UniProt P28062); experiment: Kinetic analysis, substrate titration of hu i-20S steady state velocities; assay type: biochemical
# T3 construct: purchased Boston Biochem Inc
# Description: FIGS. 1A-1E are graphs showing inhibition modality of PKS21004 against human proteasomes. Washout of c-20S from the preincubated c-20S and […] to recover the β5c activity (FIG. 1A). Substrate titration of hu i-20S (FIG. 1B) and c-20S (FIG. 1D) steady state velocities in the presence of PKS21004 at the concentrations indicated next to each curve. Data as in (FIG. 1B) were plotted double reciprocal in (FIG. 1C), and (FIG. 1D) in (FIG. 1E).
# A washout experiment was used to confirm the reversibility of this class of proteasome inhibitors, as expected from their non-covalent chemistry.
# [3] = molecular target: T4, β5i in Karpas 1106P cells (Homo sapiens, UniProt P28062); experiment: Intracellular β5i inhibition in Karpas 1106P cells ((Ac-ANW)2-R110); assay type: cell-based; conditions: 2 hours treatment
# T4 construct: endogenous in cells; host or cells: Karpas 1106P
# Excerpt: (§1) Data were average of three independent experiments.
# (§2) IC50 values with both substrates were identical and indicated cell-penetrating ability. […] No β5i activity was detected in HepG2 cells using (Ac-ANW)2—R110 as substrate (FIG. 2A).
# β5 in Karpas 1106P cells = experiment: Intracellular β5 inhibition in Karpas 1106P cells (suc-LLVY-luciferin); assay type: cell-based; conditions: 2 hours treatment
# Excerpt: as §1, §2
# β5c in HepG2 cells = molecular target: T5, β5c in HepG2 cells (Homo sapiens, UniProt P28074); experiment: Intracellular β5c inhibition in HepG2 cells (suc-LLVY-luciferin); assay type: cell-based; conditions: 2 hours treatment, read-out: IC50 HepG β5c
# T5 construct: endogenous in cells; host or cells: HepG2
# Excerpt: as §1, §2
# [4] = system: MM1.S multiple myeloma cells; experiment: Cell viability assay, MM.1S; assay type: cell-based; conditions: Homo sapiens, cytotoxicity, 72 hours
# Description: (§3) Multiple myeloma cell lines MM.1 S (200,000 cells/mL) and RPMI 8226 (200,000 cells/mL), B lymphoma cell line Karpas1106P (800,000 cells/mL), and liver cancer cell line HepG2 (12,000 cells/mL) were used to determine the cytotoxicity of compounds. Cells were cultured at 37° C. in a humidified air/5% CO2 atmosphere in medium supplemented with 10% fetal bovine serum, except for the medium for Karpas-1106P cells which contained 20% fetal bovine serum, and 100 units/ml penicillin/100 […] streptomycin in RPMI 1640 medium. 12,000 cells/well. Cells plated in a 96-well plate were treated with compounds at the indicated concentrations for 72 hours at 37° C. in a tissue culture incubator with 5% CO2. Viable cells were counted using Cell-titer/glom assay kit. EC50s were calculated using PRISM (Graphpad).
# [5] = system: RPMI 8226 multiple myeloma cells; experiment: Cell viability assay, RPMI 8226; assay type: cell-based; conditions: Homo sapiens, cytotoxicity, 72 hours
# Description: as §3
# [6] = system: Karpas1106P B lymphoma cells; experiment: Cell viability assay, Karpas1106P; assay type: cell-based; conditions: Homo sapiens, Karpas-1106P; cytotoxicity, 72 hours
# Description: as §3
# HepG2 liver cancer cells = experiment: Cell viability assay, HepG2; assay type: cell-based; conditions: Homo sapiens, cytotoxicity, 72 hours
# Description: as §3
# Pf Gametocytes = experiment: Gametocyte killing assay (DilC1(5), flow cytometry); assay type: cell-based; conditions: Plasmodium falciparum; NF54 peg4-tdTomato, 72 hour incubation; read-out: EC50 against Pf Gametocytes
# Description: Asexual replication of NF54 peg4-tdTomato parasites was eliminated by treating with 50 mM GlcNAc and 20 U/mL Heparin for 3 days. NF54 peg4-tdTomato parasites then were maintained using standard culture techniques. Gametocytes were induced synchronously according to Fivelman et al., “Improved Synchronous Production of Plasmodium Falciparum Gametocytes in Vitro,” Mol Biochemo Parasitol. 154(1):119-123 (2007), which is hereby incorporated by reference in its entirety. Asexual replication was eliminated by treating with 50 mM GlcNAc for 3 days. Gametocyte killing assays were setup on days 5 and 10 in triplicate 96-well format at 1% hematocrit and 2% gametocytemia. Compounds were setup in triplicate and serially diluted 3-fold. In addition, 6 solvent controls (DMSO) were distributed evenly across the plate. Following a 72 hour incubation, Stage III-IV (Day 5-7) and Stage IV-V (Day 10-12), (start the incubation in the afternoon on Day 5 and Day 10, take out plate for assay on Day8 and Day13 afternoon) cultures were stained with 16 nM Hoechst 33342 and 50 nM DilC1(5) for 30 min at 37 C. Using a Cytek DxP12 flow cytometer, gametocytemia was determined by gating for DNA+, hemozoin-high cells and gametocyte viability was inferred based on mitochondrial membrane potential-dependent accumulation of DilC1(5) for 2000-3000 gametocytes (Tanaka et al., “Potent Plasmodium Falciparum Gametocytocidal Activity of Diaminonaphthoquinones, Lead Antimalarial Chemotypes Identified in an Antimalarial Compound Screen,” Antimicrob. Agents Chemother. 2015, 59:1389 (2015), which is hereby incorporated by reference in its entirety). Mean DilC1(5) signal was normalized to solvent control and the overall minimum and used to calculate the EC50 (FIG. 3 and Table 4).
# [7] = β5i, substrate Ac-ANW-AMC, read-out: IC50 Hu i-20S (Ac-ANW-AMC)
# [8] = β5c, substrate Suc-LLVY-AMC, read-out: IC50 Hu c-20S (Suc-LLVY-AMC)
smiles,measurement,setting,value
CC(C)(C)NC(=O)C[C@H](NC(=O)CCc1ccccc1)C(=O)NCCNC(=O)c1ccc(-c2ccccc2)cc1 [PKS21003],pIC50,[1]; [7],< 4.00
same,pIC50,[2]; [8],< 4.00
same,pEC50,"Plasmodium falciparum; D6, Erythrocyte, read-out: EC50s against P. falciparum strain D6",< 5.56
same,pEC50,"Plasmodium falciparum; DD2, Erythrocyte, read-out: EC50s against P. falciparum strain Dd2",< 5.56
same,EC50,Plasmodium falciparum; Erythrocyte,> 2770 nM
same,pEC50,"Plasmodium falciparum; Erythrocyte, read-out: EC50s against P. falciparum strain IPC 3663",< 5.56
same,pEC50,"Plasmodium falciparum; Erythrocyte, read-out: EC50s against P. falciparum strain IPC 4884",< 5.56
same,pEC50,"Plasmodium falciparum; Erythrocyte, read-out: EC50s against P. falciparum strain IPC 5188",< 5.56
same,pEC50,"Plasmodium falciparum; Erythrocyte, read-out: EC50s against P. falciparum strain Sb1-a6",< 5.56
same,pEC50,"Plasmodium falciparum; Erythrocyte, read-out: EC50s against P. falciparum strain V1S",< 5.56
same,pEC50,"Plasmodium falciparum; HB3, Erythrocyte, read-out: EC50s against P. falciparum strain HB3",< 5.56
same,labeling of Pf20S β5 by MV151,Pf20S β5,did not
CC(C)(C)NC(=O)C[C@H](NC(=O)CCc1ccccc1)C(=O)NCCNC(=O)c1cccc(-c2ccc(F)cc2)c1 [PKS21026],pIC50,[1]; [7],6.96
same,pIC50,[2]; [8],5.94
same,EC50,Plasmodium falciparum; Erythrocyte,100 nM
Cc1ccc(S(=O)(=O)N[C@@H](CC(=O)NC(C)(C)C)C(=O)NCCNC(=O)c2cc(-c3ccccc3F)ccc2F)cc1 [PKS21221],pIC50,"[1]; IC50 Hu i-20S (Ac-ANW-AMC), β5i, substrate Ac-ANW-AMC",8.39
same,pIC50,"[1]; b406, read-out: IC50 against β5i",8.62
same,pIC50,[2],6.97
same,pIC50,"[2]; b406, read-out: IC50 against β5c",7.15
same,α for i-20S (β5i),hu i-20S β5i; fit to equation for noncompetitive inhibitors,0.26
same,modality of inhibition of β5i,hu i-20S β5i; with respect to substrate,noncompetitively inhibits; also recorded: noncompetitive
same,EC50,Plasmodium falciparum; Erythrocyte,0.55 nM
same,pIC50,[3],6.76
same,pIC50,β5 in Karpas 1106P cells,6.93
same,pIC50,β5c in HepG2 cells,5.70
same,pEC50,[4],7.02
same,pEC50,[5],7.12
same,pEC50,[6],6.08
same,pEC50,HepG2 liver cancer cells,5.52
Cc1cc(C(=O)N[C@@H](CC(=O)NC(C)(C)C)C(=O)NCCNC(=O)c2cc(-c3ccccc3)ccn2)no1 [PKS21224],pIC50,[1]; [7],6.13
same,pIC50,[2]; [8],4.47
same,EC50,Plasmodium falciparum; Erythrocyte,11 nM
same,pEC50,Pf Gametocytes,6.79
